Data from patent US20160000775A1, “USE OF HIGH DOSE LAQUINIMOD FOR TREATING MULTIPLE SCLEROSIS” (Teva Pharmaceutical Industries, Ltd., priority 2012, published 2016).
Where two headings read alike, the source gives them in different places.

Legend:
relapsing MS = conditions: cited from earlier work
[1] = in vivo; cited from earlier work
subjects with RRMS [2] = assay: ALLEGRO Phase III clinical trial, laquinimod 0.6 mg over placebo, double-blind; assay type: in vivo, human; conditions: laquinimod 0.6 mg vs placebo, 24 months
Method: ALLEGRO and BRAVO are two clinical trials reported in, e.g., PCT International Application Publication No. WO/2010/147665 ([…] et al.). ALLEGRO was a study performed in subjects with RRMS to assess the efficacy, safety and tolerability of laquinimod 0.6 mg over placebo in a double-blind design. The treatment duration in this study was 24 months and it enrolled 1,106 patients equally distributed between laquinimod 0.6 mg and placebo arms. The primary endpoint was annualized relapse rate (ARR). Secondary endpoints were gadolinium-enhancing (GdE)-T1 and new-T2 lesions, time to Expanded Disability Status Scale (EDSS) progression confirmed at 3 months and multiple sclerosis functional composite (MSFC) z-score. In ALLEGRO the primary endpoint (ARR) and three key secondary endpoints were met.

MS = conditions: 0.3 mg/day oral (Comi, 2007); cited from earlier work
[3] = system: subjects with relapsing remitting multiple sclerosis (RRMS); assay: Clinical trial MS-LAQ-305 (Phase III), oral laquinimod 0.6 mg/day or 1.2 mg/day vs placebo; assay type: in vivo, human
Method: A multinational, multicenter, randomized, double-blind, parallel-group, placebo-controlled study followed by an active treatment (clinical trial MS-LAQ-305) is conducted to evaluate the efficacy, safety and tolerability of two doses of oral administration of laquinimod (0.6 mg/day or 1.2 mg/day) laquinimod in subjects with relapsing remitting multiple sclerosis (RRMS). Study Duration • Screening period: up to 1 month. • Double-blind Placebo-controlled (DBPC) period (Period 1): At least 15 months, but not more than 24 months of once-daily, oral administration of either laquinimod 0.6 mg, 1.2 mg or matching oral placebo. DBPC period for all subjects is declared closed when all ongoing enrolled subjects complete at least 15 months of treatment. • Active-treatment (AT) period (Period 2): In this period (24 months), subjects who are assigned to either 0.6 mg or 1.2 mg daily oral laquinimod during the DBPC period continue with the same treatment assignment, whereas those who are assigned to placebo receive 1.2 mg daily oral laquinimod. Eligible subjects (approximately 1,800) are randomized in a 1:1:1 ratio into one of the following treatment arms: • 1. Laquinimod 0.6 mg: two capsules, one containing 0.6 mg laquinimod and the other containing matching placebo, administered orally once daily. • 2. Laquinimod 1.2 mg: two capsules containing 0.6 mg laquinimod administered orally once daily. • 3. Matching placebo: two capsules containing placebo (matching to the 0.6 mg) administered orally once daily. The study comprises of two treatment periods, Double-blind Placebo-controlled (DBPC) and Active-treatment (AT). Subjects who complete 24 months on study drug in Period 1 or complete at least 15 months on study drug when Period 1 is declared closed continue on to Period 2. The following assessments are performed at the specified time points: • 1. Vital signs are measured at each study visit. • 2. A physical examination is performed at months -1 (screening), 0 (baseline) 1, 3, 6, and every 6 months thereafter, ETD (if applicable) and until completion visit of Period 1. During Period 2, a physical examination is performed at months 0AT (baseline, completion visit of Period 1), 1AT, 3AT, 6AT and every 6 months thereafter, until completion/ETD of Period 2. • 3. The following safety clinical laboratory tests are performed: • (a) Complete blood count (CBC) with differential-at all scheduled visits during Periods 1 and 2. • (b) Serum chemistry (including electrolytes, liver enzymes, urea, creatinine, calculated Glomerular Filtration Rate (GFR)-at screening and prior to each MRI scan, glucose, total protein, albumin, direct and total bilirubin and pancreatic amylase)-at all scheduled visits during the DBPC and AT periods. Calculated Glomerular Filtration Rate (GFR) is done at screening and prior to each MRI scan in both study periods. • (c) Lipid profile (total cholesterol, HDL, LDL, triglycerides)-at baseline and every 12 months during the DBPC and AT periods. • (d) Urinalysis-at the screening visit. • (e) Serum β-hCG (human choriogonadotropin beta) in women of child-bearing potential-at each scheduled study visit during the DBPC and AT periods. • (f) Urine β-hCG test in women of child-bearing potential-at baseline (month 0) and at all scheduled visits during the DBPC and AT periods. • (g) Starting after visit Month 3, between scheduled visits, a rapid urine β-hCG test is performed in women of child-bearing potential every 28 (±2) days. The subject is contacted within 72 hours after the scheduled test is performed and asked specific questions regarding the test. In case of suspected pregnancy (positive urine β-hCG test result) the caller instructs the subject to make sure that the study drug has been discontinued and the subject arrives at the site as soon as possible (within 10 days) with all study drugs-during the DBPC and AT periods. • 4. […]

subjects with RRMS [4] = assay: BRAVO Phase III clinical trial, laquinimod 0.6 mg over placebo with reference arm IFN-β-1a (Avonex®); assay type: in vivo, human; conditions: vs placebo, 24 months
From the text: ALLEGRO and BRAVO are two clinical trials reported in, e.g., PCT International Application Publication No. WO/2010/147665 ([…] et al.). […] The primary endpoint was ARR. Secondary endpoints were Brain atrophy, time to EDSS progression confirmed at 3 months and MSFC z-score. […] One of the basic assumptions used to assess the sample size for the study was that treatment with laquinimod will reduce the patient population ARR by 25% or more when compared to the placebo group.

[5] = daily oral 1.2 mg compared to 0.6 mg laquinimod or placebo
[6] = corrected post-hoc analysis with two baseline MRI covariates

CCN(C(=O)c1c(O)c2c(Cl)cccc2n(C)c1=O)c1ccccc1 [Laquinimod, laquinimod]
Development of active MRI lesions (relapsing MS; 0.3 mg/day oral, relapsing MS (RRMS and SPMS) (Polman, 2005)): reduce development of active MRI lesions
Development of active MRI lesions (relapsing MS; relapsing MS, dose not stated (Polman, 2005)): reduce development of active MRI lesions
Oral bioavailability [1]: high
ARR % reduction (subjects with RRMS [2]): 23%
Brain Atrophy (exploratory endpoint) % reduction (subjects with RRMS [2]): 32.8%
Cumulative number of GdE T1 lesions % reduction (subjects with RRMS [2]): 37%
Cumulative number of new T2 lesions % reduction (subjects with RRMS [2]): 30%
EDSS Progression (3 m confirmation) % reduction (subjects with RRMS [2]): 36%
MSFC z-score % reduction (subjects with RRMS [2]): 51%
MRI and clinical effect as compared to placebo (MS): neither MRI nor clinical effect
Efficacy in treating RRMS patients with respect to all endpoints ([3]; 1.2 mg/day compared to 0.6 mg/day laquinimod): improved efficacy
Fatigue and functional status ([3]; 1.2 mg/day compared to 0.6 mg/day laquinimod or placebo): maintained or improved
Time to first confirmed relapse ([3]; daily oral 1.2 mg compared to 0.6 mg laquinimod and placebo): prolonged time to first confirmed relapse
Accumulation of disability as measured by the MSFC score or Timed 25-foot walk (T25FW) [3, 5]: reduced the accumulation of disability
Annualized relapse rate [3, 5]: lower annualized relapse relate
Brain atrophy, percent brain volume change from baseline to month 15 [3, 5]: reduced brain atrophy
Brain atrophy, percent change in brain volume from baseline to month 24 [3, 5]: reduced brain atrophy
Functional status and general health, Short-Form general health survey (SF-36) [3, 5]: improved functional status and general health
MRI-monitored disease activity (enhancing T1, new hypointense T1, new T2 lesion numbers and lesion volume changes) [3, 5]: reduced MRI-monitored disease activity
Neuroprotection [3, 5]: more effective in providing neuroprotection
Number of confirmed relapses [3, 5]: reduced number of confirmed relapses
Symbol Digit Modalities Test (SDMT) score [3, 5]: improved Symbol Digit Modalities Test (SDMT) score
Time to Confirmed Disease Progression (CDP) [3, 5]: prolonged time to CDP
ARR % reduction, Corrected (subjects with RRMS [4]; [6]): 21.3%
Brain Atrophy % reduction, Corrected (subjects with RRMS [4]; [6]): 27.4%
Cumulative number of GdE T1 lesions % reduction, Corrected (subjects with RRMS [4]; [6]): 21.7%
Cumulative number of new T2 lesions (exploratory endpoint) % reduction, Corrected (subjects with RRMS [4]; [6]): 18.7%
EDSS Progression (3 m confirmation) % reduction, Corrected (subjects with RRMS [4]; [6]): 33.5%
MSFC % reduction, Corrected (subjects with RRMS [4]; [6]): 77.1%
ARR % reduction, Corrected (subjects with RRMS [4]; corrected post-hoc analysis with two baseline MRI covariates, listed as laquinimod): 21.3%
ARR % reduction, Original (subjects with RRMS [4]; original analysis): 17.7%
Brain Atrophy % reduction, Original (subjects with RRMS [4]; original analysis): 27.6%
Cumulative number of GdE T1 lesions % reduction, Original (subjects with RRMS [4]; original analysis): 21.5%
Cumulative number of new T2 lesions (exploratory endpoint) % reduction, Original (subjects with RRMS [4]; original analysis): 16.5%
EDSS Progression (3 m confirmation) % reduction, Original (subjects with RRMS [4]; original analysis): 31.3%
MSFC % reduction, Original (subjects with RRMS [4]; original analysis): 77.7%
ARR % reduction, Original (subjects with RRMS [4]; original analysis, listed as laquinimod): 17.7%
